Consider one substance from US12303621B2, “Use of self-assembled alkylsilane coatings for drug delivery applications” (priority 2017, dated 2025).

The nature of this data set: In vitro release of TC or Rh in simulated body fluid (SBF) from alkylsilane-coated Mg discs. Type of data set: physicochemical. The following applies: alkylsilane coated Mg disks incubated in SBF, room temperature, 21 day period, sampled every two days; FIG. 1; one way ANOVA highly significant. The protocol:
Self-assembled hybrid […] (AS) films on Mg were prepared using a dip-coating technique. The precursor solution was prepared by mixing 0.25 ml (0.73 mM) of […]) (Alfa Aesar, Ward Hill, MA, USA), 0.43 ml (2.92 mM) of […]) (Alfa Aesar, Ward Hill, MA, USA), 2 ml (0.032 mM) of ethanol and 0.25 ml of 0.010 mM HCl (aq.). […] Both the solutions were kept in the dark to avoid contact with light The Mg discs passivated with NaOH were dip coated in the TC- or Rh-containing solution for 1 minute, and dried in air for 10 minutes at room temperature in the dark. The discs were subsequently dried in an incubator at 37° C. for 24 hours to remove any trace amounts of organic solvents. […] Every two days, 150 μl of SBF was taken from each tube and concentrations of Tc and Rh were determined spectroscopically. The concentrations of TC or Rh were determined by measuring absorbance at 280 nm for TC, and fluorescence at excitation/emission wavelengths of 525/555 nm for Rh using a Synergy H1 microplate reader (BioTek instruments, Winooski, VT, USA). Standard curves were created by measuring absorbance and fluorescence intensities of the series of TC and Rh samples of known concentrations. Absorbance and Fluorescence intensity of each sample was calculated as an average of three separate readings. […] Cumulative release of TC or Rh over 21 day period was determined.

In the case of rhodamine, the “concentration in SBF media (cumulative release)” value is reported as “incremental increase”.
